Measured values taken from PubChem BioAssay AID248 (DTP/NCI, 2004).
“And” between values parts separate entries of the source, which are not always exact repeats. Equal values may be shown once. Toxic doses and inconclusive results are not listed. No stated cut-off is given here; in the data, active means T/C of 150% or more; inactive means T/C below 125%. Square brackets hold non-standard residues; d marks the D form. Peptide text beside a SMILES is read from it. * marks the point of attachment. ξ: configuration not given here. Cbz = O=C(OCc1ccccc1)*; ξL = CC(C)CC(N)C(=O)O; OBn = c1ccc(CO*)cc1

Tested on: L1210 leukemia ip in BDF1 mice, survival T/C
Experiment: NCI In Vivo Anticancer Drug Screen. Data for tumor model L1210 Leukemia (intraperitoneal) in B6D2F1 (BDF1) mice
Settings: endpoint: mean survival time, higher = longer survival
How it was run: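 Transplantable tumor model; survival measured in treated vs vehicle control mice. Value = treated/control.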

[1] = dose: 100.0 mg/kg/injection, schedule: Q01DX001 (ip), vehicle: saline with Tween-80
[2] = dose: 200.0 mg/kg/injection, schedule: Q01DX001 (ip), vehicle: saline with Tween-80
[3] = dose: 400.0 mg/kg/injection, schedule: Q01DX001 (ip), vehicle: saline with Tween-80
[4] = dose: 100.0 mg/kg/injection, schedule: Q01DX001 (ip), vehicle: saline
[5] = dose: 200.0 mg/kg/injection, schedule: Q01DX001 (ip), vehicle: saline
[6] = dose: 400.0 mg/kg/injection, schedule: Q01DX001 (ip), vehicle: saline
[7] = dose: 100.0 mg/kg/injection, schedule: Q04DX003 (ip), vehicle: Klucel (hydroxypropylcellulose) (HPC)
[8] = dose: 200.0 mg/kg/injection, schedule: Q04DX003 (ip), vehicle: Klucel (hydroxypropylcellulose) (HPC)
[9] = dose: 400.0 mg/kg/injection, schedule: Q04DX003 (ip), vehicle: Klucel (hydroxypropylcellulose) (HPC)

Measured: T/C

C=CCc1ccc(OCCOCCNC2C(C)CCCC2(C)C)c(OC)c1 (stereo not given)
inactive: dose: 5.0 mg/kg/injection, schedule: Q01DX009 (ip), vehicle: Klucel (hydroxypropylcellulose) (HPC) 101 % of control | dose: 5.0 mg/kg/injection, schedule: Q04DX003 (ip), vehicle: Klucel (hydroxypropylcellulose) (HPC) 96 % of control | dose: 10.0 mg/kg/injection, schedule: Q01DX009 (ip), vehicle: Klucel (hydroxypropylcellulose) (HPC) 100 % of control | dose: 10.0 mg/kg/injection, schedule: Q04DX003 (ip), vehicle: Klucel (hydroxypropylcellulose) (HPC) 90 % of control | dose: 20.0 mg/kg/injection, schedule: Q01DX009 (ip), vehicle: Klucel (hydroxypropylcellulose) (HPC) 97 % of control | dose: 20.0 mg/kg/injection, schedule: Q04DX003 (ip), vehicle: Klucel (hydroxypropylcellulose) (HPC) 96 % of control

CN=C(NCc1ccccc1)c1ccc(NC(=O)c2ccc(C(=O)Nc3ccc(C(=NC)NCc4ccccc4)cc3)cc2)cc1
inactive: dose: 1.9 mg/kg/injection, schedule: Q01DX Z (ip), vehicle: methylcellulose (MC) 97 % of control | dose: 3.8 mg/kg/injection, schedule: Q01DX Z (ip), vehicle: methylcellulose (MC) 108 % of control | dose: 7.5 mg/kg/injection, schedule: Q01DX Z (ip), vehicle: methylcellulose (MC) 93 % of control

CCCCNS(=O)(=O)c1n[nH]c(=O)[nH]c1=O
inactive: dose: 100.0 mg/kg/injection, schedule: Q01DX001 (ip), vehicle: other 104 % of control | dose: 200.0 mg/kg/injection, schedule: Q01DX001 (ip), vehicle: other 101 % of control | dose: 400.0 mg/kg/injection, schedule: Q01DX001 (ip), vehicle: other 93 % of control

NCC1CCNCC1
inactive: dose: 25.0 mg/kg/injection, schedule: Q04DX002 (ip), vehicle: saline 103 % of control | dose: 50.0 mg/kg/injection, schedule: Q04DX002 (ip), vehicle: saline 97 % of control and 100 % of control | dose: 100.0 mg/kg/injection, schedule: Q04DX002 (ip), vehicle: saline 103 % of control and 106 % of control | dose: 200.0 mg/kg/injection, schedule: Q04DX002 (ip), vehicle: saline 102 % of control and 90 % of control | dose: 400.0 mg/kg/injection, schedule: Q04DX002 (ip), vehicle: saline 97 % of control

CCN(Cc1ccncc1)C(=O)C(O)(c1ccccc1)c1ccccc1
inactive: [1] 93 % of control | [2] 88 % of control | [3] 87 % of control

Clc1ccccc1/C=N\N=C(N/N=C\c1ccccc1Cl)N/N=C/c1ccccc1Cl
inactive: dose: 15.0 mg/kg/injection, schedule: Q01DX Z (ip), vehicle: carboxymethylcellulose (CMC) 103 % of control | dose: 30.0 mg/kg/injection, schedule: Q01DX Z (ip), vehicle: carboxymethylcellulose (CMC) 97 % of control | dose: 60.0 mg/kg/injection, schedule: Q01DX Z (ip), vehicle: carboxymethylcellulose (CMC) 98 % of control | dose: 120.0 mg/kg/injection, schedule: Q01DX Z (ip), vehicle: carboxymethylcellulose (CMC) 97 % of control | dose: 150.0 mg/kg/injection, schedule: Q01DX Z (oral), vehicle: carboxymethylcellulose (CMC) 101 % of control | dose: 300.0 mg/kg/injection, schedule: Q01DX Z (oral), vehicle: carboxymethylcellulose (CMC) 101 % of control | dose: 600.0 mg/kg/injection, schedule: Q01DX Z (oral), vehicle: carboxymethylcellulose (CMC) 101 % of control | dose: 1200.0 mg/kg/injection, schedule: Q01DX Z (oral), vehicle: carboxymethylcellulose (CMC) 100 % of control

CC(=O)Nc1cc(Cl)ccc1SC1OC(COC(C)=O)C(OC(C)=O)C(OC(C)=O)C1OC(C)=O (stereo not given)
inactive: [4] 93 % of control | [5] 95 % of control | [6] 87 % of control

CCCCCCCCCCC[As](=O)(O)O
inactive: dose: 12.5 mg/kg/injection, schedule: Q01DX001 (ip), vehicle: carboxymethylcellulose (CMC) 108 % of control | dose: 25.0 mg/kg/injection, schedule: Q01DX001 (ip), vehicle: carboxymethylcellulose (CMC) 96 % of control | dose: 50.0 mg/kg/injection, schedule: Q01DX001 (ip), vehicle: carboxymethylcellulose (CMC) 104 % of control

CC(C)CC(NC(=O)CNC(=O)CNC(=O)OCc1ccccc1)C(=O)OCc1ccccc1 (stereo not drawn) (Cbz-Gly-Gly-[ξL]-OBn)
inactive: [7] 94 % of control | [8] 96 % of control | [9] 100 % of control

NC(N)=Nc1ccc(Sc2ccc(N=C(N)N)cc2)cc1
inactive: dose: 75.0 mg/kg/injection, schedule: Q01DX001 (ip), vehicle: carboxymethylcellulose (CMC) 101 % of control | dose: 150.0 mg/kg/injection, schedule: Q01DX001 (ip), vehicle: carboxymethylcellulose (CMC) 98 % of control | dose: 300.0 mg/kg/injection, schedule: Q01DX001 (ip), vehicle: carboxymethylcellulose (CMC) 98 % of control

COC(=O)C1C2CCc3cc(OC)ccc3C2=CCC1C(OC)OC (stereo not given)
inactive: [7] 89 % of control | [8] 89 % of control | [9] 89 % of control

CCCCNC(=S)N/N=C/c1ccccn1
inactive: [7] 90 % of control | [8] 97 % of control

CCNCCNC
inactive: dose: 50.0 mg/kg/injection, schedule: Q01DX009 (ip), vehicle: saline 96 % of control | dose: 100.0 mg/kg/injection, schedule: Q01DX009 (ip), vehicle: saline 101 % of control | dose: 100.0 mg/kg/injection, schedule: Q04DX003 (ip), vehicle: saline 108 % of control | dose: 200.0 mg/kg/injection, schedule: Q04DX003 (ip), vehicle: saline 101 % of control

Nc1ccc(CCC(=O)Nc2ccc(S(=O)(=O)F)cc2)c(Cl)c1
inactive: [1] 101 % of control | [2] 93 % of control | [3] 88 % of control

CN(Cc1ccccc1)C(=S)[S-].CN(Cc1ccccc1)C(=S)[S-].[Zn]
inactive: dose: 2.5 mg/kg/injection, schedule: Q01DX009 (ip), vehicle: acetone 100 % of control | dose: 5.0 mg/kg/injection, schedule: Q01DX009 (ip), vehicle: acetone 87 % of control | dose: 5.0 mg/kg/injection, schedule: Q04DX003 (ip), vehicle: saline 95 % of control | dose: 10.0 mg/kg/injection, schedule: Q01DX001 (ip), vehicle: saline 91 % of control | dose: 10.0 mg/kg/injection, schedule: Q01DX009 (ip), vehicle: acetone 89 % of control | dose: 10.0 mg/kg/injection, schedule: Q04DX003 (ip), vehicle: saline 92 % of control | dose: 20.0 mg/kg/injection, schedule: Q01DX001 (ip), vehicle: saline 93 % of control | dose: 20.0 mg/kg/injection, schedule: Q04DX003 (ip), vehicle: saline 89 % of control

O=C(O)c1c(Br)c(Br)c(Br)c(Br)c1C(=O)Nc1cccc2ccccc12
inactive: dose: 100.0 mg/kg/injection, schedule: Q04DX002 (ip), vehicle: saline with Tween-80 97 % of control | dose: 200.0 mg/kg/injection, schedule: Q04DX002 (ip), vehicle: saline with Tween-80 97 % of control | dose: 400.0 mg/kg/injection, schedule: Q04DX002 (ip), vehicle: saline with Tween-80 94 % of control

CCOC(=O)C(=NNc1cccc(Br)c1)C(=O)OCC
inactive: [4] 98 % of control | [5] 94 % of control | [6] 96 % of control

COc1ccccc1NC(=O)Nc1ccccc1
inactive: dose: 100.0 mg/kg/injection, schedule: Q01DX009 (ip), vehicle: Klucel (hydroxypropylcellulose) (HPC) 94 % of control and 102 % of control | [7] 95 % of control | dose: 200.0 mg/kg/injection, schedule: Q01DX009 (ip), vehicle: Klucel (hydroxypropylcellulose) (HPC) 96 % of control and 97 % of control | [8] 93 % of control | dose: 400.0 mg/kg/injection, schedule: Q01DX009 (ip), vehicle: Klucel (hydroxypropylcellulose) (HPC) 96 % of control and 100 % of control | [9] 86 % of control

CCCCCCCCC(=O)N1CCN(C(=O)CCCCCCCC)C1
inactive: dose: 30.0 mg/kg/injection, schedule: Q01DX001 (ip), vehicle: saline 96 % of control | [4] 96 % of control | dose: 300.0 mg/kg/injection, schedule: Q01DX001 (ip), vehicle: saline 91 % of control
